The text below walks through data of patent US9518038B2, “Condensation product of theanine derivative and carboxylic acid coumarin derivative, its intermediate, preparation method and use thereof” (SHANDONG YINGDONG YINGHAO BIOTECHNOLOGY, INC., priority 2012, dated 2016).

One assay concerns HDAC3. As to the kind of experiment: HDAC3 enzyme activity in nuclear extracts of human tumor xenografts of treated mice. As to conditions: first value of the pair HDAC3 and HDAC4, SAHA 25 mg/kg.
The next assay has as its system Cyclin D1. Description: Western Blotting, Cyclin D1 level. The format is cell-based. As to conditions: human liver cancer cells, Lewis lung cancer cells and other cancer cell lines and tumor tissues, read-out: Effective concentration (IC50) for inhibition of Cyclin D1. The source says: (§1) Antibodies: primary antibodies of VEGFR, EGFR, c-Met, K-Ras, H-Ras, Akt, NF-κB, Cyclin D1, ER-alpha, Dvl-1, Dvl-2, Dvl-3, MMP-9, MMP2, β-catenin, Bcl-2, Bax, p53, p21, E-cadherin and Caspase3 protein, purchased from American Cell Signaling Technology Company and Santa Cruz Technology Company; and H3 acetylation, H4 acetylation and HDAC (HDAC3, HDAC4 and the like) Antibody Sample Kits, purchased from Cell Signaling Technology Company of the U.S.
(§2) (3) polyacrylamide gel electrophoresis (SDS-PAGE): an equal amount of protein lysate sample was used to separate protein, film transfer, and blocking, treated with appropriate primary antibodies and secondary antibodies in sequence, and the film was washed, then the color was developed with ECL kit, and a blot protein band was detected by exposure of an X-ray film; and a Gel-Pro Analyzer was used for quantitative analysis of gray degree, optical density value of the control group and the drug treatment group in various concentration were respectively compared with that of internal reference, the obtained ratios were respectively compared with the control group, and the protein expression level was semi-quantified.

Assay [1] concerns human brain tumor cells Daoy. As to the kind of experiment: MTT growth inhibition, Daoy cells. As to conditions: Homo sapiens, 72 h after treatment, read-out: Drug concentration (IC50) at which 50% cancer cells survived. The format is cell-based.
The next assay deals with Nuclear β-catenin. As to the kind of experiment: Western Blotting, nuclear β-catenin level. The assay is classed as cell-based. As to conditions: human liver cancer cells, Lewis lung cancer cells and other cancer cell lines and tumor tissues, read-out: Effective concentration (IC50) for inhibition of Nuclear β-catenin.
Description: as §1, §2

For assay [2], the system named is human pancreatic cancer cells BxPC3. As to the kind of experiment: MTT growth inhibition, BxPc3 cells. As to conditions: Homo sapiens, BXPC-3, 72 h after treatment, read-out: Drug concentration (IC50) at which 50% cancer cells survived. The format is cell-based.
A further assay relates to EGFR. Description: Western Blotting, EGFR level. As to conditions: human liver cancer cells, Lewis lung cancer cells and other cancer cell lines and tumor tissues, read-out: Effective concentration (IC50) for inhibition of EGFR. The assay is classed as cell-based.
Description: as §1, §2

A further assay deals with E-cadherin. Description: Western Blotting, increase of E-cadherin level. The assay is classed as cell-based. As to conditions: liver cancer cells, Lewis lung cancer cells and other cancer cell lines and tumor tissue protein lysates, 48 h treatment, read-out: Effective concentration to increase E-cadherin by 50%.
Description: as §1, §2

A further assay addresses T1, EZH2 (Mus musculus, UniProt Q61188).
T1 construct: the EZH2 enzyme was replaced with tumor protein extracts in each group; from tissue; host or cells: Lewis lung cancer tumours from treated mice
Description: EZH2 enzyme activity in protein extracts of LLC tumors of treated mice (EZH2 Assay Kit). As to conditions: LLC tumor grown in vivo; tumors excised 6 h after medication; SAHA 25 mg/kg.

The subject of another assay is HDAC4. Description: HDAC4 enzyme activity in nuclear extracts of LLC tumors of treated mice. As to conditions: LLC tumor grown in vivo; second value of the pair HDAC3 and HDAC4; SAHA 25 mg/kg.
The next assay deals with Dvl-3. As to the kind of experiment: Western Blotting, Dvl-3 level. The format is cell-based. As to conditions: human liver cancer cells, Lewis lung cancer cells and other cancer cell lines and tumor tissues, read-out: Effective concentration (IC50) for inhibition of DVl-3.
Description: as §1, §2

In the next assay the test system is MMP-2. Description: Western Blotting, MMP2 level. As to conditions: human liver cancer cells, Lewis lung cancer cells and other cancer cell lines and tumor tissues, read-out: Effective concentration (IC50) for inhibition of MMP2. The assay is classed as cell-based.
Description: as §1, §2

Another assay has as its system ER-alpha. Description: Western Blotting, ER-alpha level. The assay is classed as cell-based. As to conditions: human liver cancer cells, Lewis lung cancer cells and other cancer cell lines and tumor tissues, read-out: Effective concentration (IC50) for inhibition of ER-alpha.
Description: as §1, §2

Another assay relates to MMP-9. Description: Western Blotting, MMP9 level. The assay is classed as cell-based. As to conditions: human liver cancer cells, Lewis lung cancer cells and other cancer cell lines and tumor tissues, read-out: Effective concentration (IC50) for inhibition of MMP9.
Description: as §1, §2

The next assay concerns Dvl-2. As to the kind of experiment: Western Blotting, Dvl-2 level. As to conditions: human liver cancer cells, Lewis lung cancer cells and other cancer cell lines and tumor tissues, read-out: Effective concentration (IC50) for inhibition of Dvl-2. The assay is classed as cell-based.
Description: as §1, §2

Marks after values point to notes of the source that are not given here. Bounds are passed on as bounds.

T1 sequence (Q61188 whole entry): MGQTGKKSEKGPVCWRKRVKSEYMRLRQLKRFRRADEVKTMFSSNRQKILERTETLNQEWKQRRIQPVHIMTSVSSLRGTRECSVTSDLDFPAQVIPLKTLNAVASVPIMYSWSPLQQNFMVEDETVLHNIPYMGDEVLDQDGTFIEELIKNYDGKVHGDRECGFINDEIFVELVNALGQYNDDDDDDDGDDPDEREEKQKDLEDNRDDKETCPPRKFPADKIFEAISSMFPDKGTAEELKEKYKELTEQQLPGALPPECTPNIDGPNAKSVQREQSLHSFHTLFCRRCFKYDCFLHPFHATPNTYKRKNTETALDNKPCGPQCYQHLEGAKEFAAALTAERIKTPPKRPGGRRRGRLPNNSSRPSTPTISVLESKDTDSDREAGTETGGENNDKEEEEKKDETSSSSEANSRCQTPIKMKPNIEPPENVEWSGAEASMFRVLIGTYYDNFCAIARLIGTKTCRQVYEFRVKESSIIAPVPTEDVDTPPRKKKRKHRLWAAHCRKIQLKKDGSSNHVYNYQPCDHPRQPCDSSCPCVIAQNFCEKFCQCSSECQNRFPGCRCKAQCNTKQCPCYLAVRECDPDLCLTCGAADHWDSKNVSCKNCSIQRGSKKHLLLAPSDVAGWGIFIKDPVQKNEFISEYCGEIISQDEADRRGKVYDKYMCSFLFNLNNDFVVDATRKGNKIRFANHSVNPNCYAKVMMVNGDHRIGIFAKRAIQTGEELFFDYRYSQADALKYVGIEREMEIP
T1 sequence (Q921E6 whole entry partner): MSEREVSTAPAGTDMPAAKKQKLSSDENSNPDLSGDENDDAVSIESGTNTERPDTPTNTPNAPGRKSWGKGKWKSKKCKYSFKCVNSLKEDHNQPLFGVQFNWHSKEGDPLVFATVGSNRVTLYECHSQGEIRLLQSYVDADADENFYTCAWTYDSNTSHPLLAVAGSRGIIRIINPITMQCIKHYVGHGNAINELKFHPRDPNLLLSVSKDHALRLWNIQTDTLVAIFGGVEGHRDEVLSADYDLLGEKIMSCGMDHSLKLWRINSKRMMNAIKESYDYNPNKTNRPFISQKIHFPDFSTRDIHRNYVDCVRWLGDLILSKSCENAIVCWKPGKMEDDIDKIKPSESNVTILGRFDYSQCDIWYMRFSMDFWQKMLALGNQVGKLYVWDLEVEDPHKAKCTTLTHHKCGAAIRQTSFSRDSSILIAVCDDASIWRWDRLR
T1 sequence (Q80U70 whole entry partner): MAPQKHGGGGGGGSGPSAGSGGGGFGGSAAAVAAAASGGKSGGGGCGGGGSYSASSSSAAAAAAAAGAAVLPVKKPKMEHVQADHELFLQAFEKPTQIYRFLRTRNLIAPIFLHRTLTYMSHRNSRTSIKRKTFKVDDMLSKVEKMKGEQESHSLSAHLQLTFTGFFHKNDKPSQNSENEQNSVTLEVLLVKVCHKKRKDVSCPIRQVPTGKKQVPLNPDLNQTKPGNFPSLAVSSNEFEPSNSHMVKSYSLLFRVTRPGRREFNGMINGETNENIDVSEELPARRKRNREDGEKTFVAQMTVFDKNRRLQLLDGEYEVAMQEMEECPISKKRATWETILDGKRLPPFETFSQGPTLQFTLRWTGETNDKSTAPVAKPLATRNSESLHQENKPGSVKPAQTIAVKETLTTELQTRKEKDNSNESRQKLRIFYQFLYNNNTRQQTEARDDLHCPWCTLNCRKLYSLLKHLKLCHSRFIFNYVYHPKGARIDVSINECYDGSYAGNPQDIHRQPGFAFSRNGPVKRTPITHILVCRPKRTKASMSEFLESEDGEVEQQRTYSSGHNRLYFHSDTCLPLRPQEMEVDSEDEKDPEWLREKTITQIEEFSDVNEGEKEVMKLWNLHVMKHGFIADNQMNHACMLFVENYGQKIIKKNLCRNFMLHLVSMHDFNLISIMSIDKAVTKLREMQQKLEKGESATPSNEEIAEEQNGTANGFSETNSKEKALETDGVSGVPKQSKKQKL
Description for HDAC3: (§3) For the detection of the effect of the drugs on enzyme activity of EZH2 and HDAC of in-vivo tumors, the tumors were separately excised after 6 h of medication, total proteins and nucleoproteins were extracted separately to detect and analyze the activity of the enzyme.
(§4) (2) 50 μl of diluted sample solution was added into each reaction well, the plate was sealed with a plate-sealing film and reacted at room temperature for 30 min;
(§5) (3) the plate-sealing film was carefully peeled off, the liquid was removed, dried, 150 μl of washing liquid was added into each well, stood for 30 s, then the liquid was removed, repeated twice, and dried;
(§6) (4) 2 μl of HDAC enzyme or tumor tissue nuclear extracts was respectively uniformly mixed with 28 μl of diluted sample solution, added into the wells, the plate was sealed with the plate-sealing film and reacted at 37° C. for 60 min;
(5) the plate was washed for three times, wherein the operation was the same as that in (3); and a diluted antibody capture working solution was added into each reaction well according to 50 μl/well and reacted on a shaking bed at room temperature for 60 min;
(6) the plate was washed for four times, wherein the operation was the same as that in (3);
(7) a diluted antibody detection working solution was added into each reaction well according to 50 μl/well and reacted at room temperature for 30 min;
(8) the plate was washed for five times, wherein the operation was the same as that in (3);
a color developing agent was added according to 100 μl/well, and performed dark development for 2-10 min;
(9) 50 μl of stop solution was added into each well for stopping the reaction when the color in the well with a standard product turned blue with medium intensity, the color immediately turned yellow from blue after the addition;
(§7) (10) the light absorbance (OD value) of each well was measured in sequence at the wavelength of 450 nm; wherein the measurement should be performed within 15 min after addition of the stop solution; and
Description for HDAC4: as §3, §4, §5, §6
(5) the plate was washed for three times, wherein the operation was the same as that in (3); and a diluted antibody capture working solution was added into each reaction well according to 50 μl/well and reacted on a shaking bed at room temperature for 60 min; […]
as §7

In the case of `CCNC(=O)CCC(NC(=O)c1cc2cc(F)ccc2oc1=O)C(=O)OCC` (stereo in doubt) [Compound Ie, (R)-2-(6-F-2-oxo-2H-benzopyran-3-carboxamido)-5-ethylamino-5-oxo-pentanoic acid ethyl ester], the “decrease of HDAC3 enzyme activity/inhibition rate” value with HDAC3 (A549 tumor grown in vivo) stood at 70%* and; in the assay on HDAC3 (MCF7 tumor grown in vivo) it was 65%* and; in the assay on HDAC3 (MDA-MB231 tumor grown in vivo), 60%* and; in the assay with HDAC3 (SMMC7721 tumor grown in vivo), 63%* and. In addition, the IC50 in the assay with Cyclin D1 is less than 160 µM; in assay [1], 210 µM; in the assay with Nuclear β-catenin, less than 65 µM; in assay [2], 260 µM; in the assay on EGFR it was less than 110 µM. In addition, in the assay on E-cadherin, the EC50 was less than 65 µM.
For `CCNC(=O)CCC(NC(=O)c1cc2cc([N+](=O)[O-])ccc2oc1=O)C(=O)OCC` (stereo in doubt) [Compound If, (R)-2-(6-nitro-2-oxo-2H-benzopyran-3-carboxamido)-5-ethylamino-5-oxo-pentanoic acid ethyl ester], the “decrease of HDAC3 enzyme activity/inhibition rate” value in the assay on HDAC3 (A549 tumor grown in vivo) is 73%* and; with HDAC3 (MCF7 tumor grown in vivo), 67%* and; with HDAC3 (MDA-MB231 tumor grown in vivo), 65%* and; in the assay on HDAC3 (SMMC7721 tumor grown in vivo), 66%* and. Besides, the IC50 was less than 90 µM with Cyclin D1; 129 µM in assay [1]; less than 90 µM in the assay on Nuclear β-catenin; 180 µM in [2]; less than 100 µM with EGFR. Further, the EC50 in the assay on E-cadherin was less than 65 µM.
On to `CCNC(=O)CC[C@H](N)C(=O)OC` [Compound IIa, theanine methyl ester], for which the IC50 in assay [1] turned out to be 400 µM; in assay [2] it was 600 µM.
The like results for `CCNC(=O)CC[C@H](N)C(=O)OCC` [Compound IIb, theanine ethyl ester] were, in that order, 400 µM and 300 µM.
Regarding `CCNC(=O)CCC(NC(=O)c1cc2ccccc2oc1=O)C(=O)OC` (stereo not shown) [Compound Ia, methyl 5-ethylamino-5-oxo-2-(2-oxo-2H-benzopyran-3-carboxamido)pentanoate], the “decrease of HDAC3 enzyme activity/inhibition rate” value with HDAC3 (SMMC7721 tumor grown in vivo) came to 60%* and. Besides, the IC50 was less than 125 µM in the assay on Cyclin D1; 250 µM in assay [1]; less than 120 µM in the assay with Nuclear β-catenin; 350 µM in assay [2]; less than 125 µM in the assay with EGFR. In addition, in the assay with E-cadherin, the EC50 is less than 75 µM. In addition, on EZH2, the “decrease of EZH2 enzyme activity/inhibition rate” value was 52%(LLC)-. In the assay on HDAC4, the “decrease of HDAC4 enzyme activity/inhibition rate” value is recorded as 52%*(LLC)-.
In the case of `CCNC(=O)CCC(NC(=O)c1cc2ccccc2oc1=O)C(=O)OCC` (stereo not shown) [Compound Ib, ethyl 5-ethylamino-5-oxo-2-(2-oxo-2H-benzopyran-3-carboxamido)pentanoate], the “decrease of HDAC3 enzyme activity/inhibition rate” value with HDAC3 (A549 tumor grown in vivo) was determined as 65%* and; in the assay with HDAC3 (SMMC7721 tumor grown in vivo), 63%* and. Besides, the IC50 in the assay with Cyclin D1 is less than 120 µM; in assay [1], 135 µM; with Nuclear β-catenin, less than 120 µM; in [2] it was 105 µM; in the assay with EGFR, less than 120 µM. In the assay on E-cadherin, the EC50 was less than 70 µM.
As for `CCNC(=O)CC[C@@H](NC(=O)c1cc2cc(Cl)ccc2oc1=O)C(=O)OCC` [Compound Ic, (R)-2-(6-CI-2-oxo-2H-benzopyran-3-carboxamido)-5-ethylamino-5-oxo-pentanoic acid ethyl ester], the “decrease of HDAC3 enzyme activity/inhibition rate” value with HDAC3 (A549 tumor grown in vivo) amounted to 71%* and; in the assay on HDAC3 (MCF7 tumor grown in vivo), 60%* and; in the assay with HDAC3 (MDA-MB231 tumor grown in vivo), 63%* and; in the assay on HDAC3 (SMMC7721 tumor grown in vivo), 65%* and. The IC50 with Cyclin D1 is less than 100 µM; in assay [1], 86 µM; in the assay with Nuclear β-catenin, less than 100 µM; in [2], 89 µM; in the assay on EGFR, less than 100 µM. Also, the EC50 in the assay on E-cadherin is less than 65 µM.
As for `CCNC(=O)CC[C@@H](NC(=O)c1cc2cc(Br)ccc2oc1=O)C(=O)OCC` [Compound Id, (R)-2-(6-Br-2-oxo-2H-benzopyran-3-carboxamido)-5-ethylamino-5-oxo-pentanoic acid ethyl ester], the “decrease of HDAC3 enzyme activity/inhibition rate” value in the assay on HDAC3 (A549 tumor grown in vivo) stood at 71%* and; in the assay on HDAC3 (MCF7 tumor grown in vivo), 60%* and; in the assay on HDAC3 (MDA-MB231 tumor grown in vivo), 63%* and; in the assay with HDAC3 (SMMC7721 tumor grown in vivo), 65%* and. For the same molecule, the IC50 with Cyclin D1 was less than 100 µM; in assay [1], 128 µM; in the assay on Nuclear β-catenin, less than 100 µM; in [2], 116 µM; in the assay on EGFR, less than 100 µM. Further, the EC50 with E-cadherin is less than 65 µM.
With `CCNC(=O)CC[C@@H](NC(=O)c1cc2cc(Cl)cc(Cl)c2oc1=O)C(=O)OCC` [Compound Ig, (R)-2-(6,8-dichloro-2-oxo-2H-benzopyran-3-carboxamido)-5-ethylamino-5-oxo-pentanoic ethyl ester], the “decrease of HDAC3 enzyme activity/inhibition rate” value came to 61%* and in the assay on HDAC3 (A549 tumor grown in vivo), 66%* and in the assay on HDAC3 (MCF7 tumor grown in vivo), 64%* and with HDAC3 (MDA-MB231 tumor grown in vivo) and 62%* and in the assay on HDAC3 (SMMC7721 tumor grown in vivo). Further, the IC50 was less than 100 µM in the assay on Dvl-3; less than 50 µM in the assay on MMP-2; less than 70 µM in the assay on Cyclin D1; 110 µM in [1]; less than 100 µM with Nuclear β-catenin; 119 µM in assay [2]. Besides, the IC50 in the assay with ER-alpha was less than 100 µM; in the assay on EGFR, less than 100 µM; in the assay with MMP-9 it was less than 65 µM; in the assay on Dvl-2, less than 100 µM. The EC50 in the assay on E-cadherin is less than 70 µM.
Regarding `CCNC(=O)CC[C@@H](NC(=O)c1cc2cc(Br)cc(Br)c2oc1=O)C(=O)OCC` [Compound Ih, (R)-2-(6,8-dibromo-2-oxo-2H-benzopyran-3-carboxamido)-5-ethylamino-5-oxo-pentanoic ethyl ester], the “decrease of HDAC3 enzyme activity/inhibition rate” value was determined as 57%* and with HDAC3 (A549 tumor grown in vivo), 64%* and with HDAC3 (MCF7 tumor grown in vivo), 62%* and in the assay on HDAC3 (MDA-MB231 tumor grown in vivo) and 60%* and with HDAC3 (SMMC7721 tumor grown in vivo). Further, the IC50 in the assay on Dvl-3 was less than 100 µM; with MMP-2, less than 50 µM; with Cyclin D1, less than 70 µM; in assay [1], 121 µM; in the assay on Nuclear β-catenin, less than 100 µM; in assay [2], 128 µM. Besides, the IC50 was less than 100 µM in the assay with ER-alpha, less than 100 µM in the assay with EGFR, less than 65 µM in the assay on MMP-9 and less than 100 µM in the assay on Dvl-2. In addition, the EC50 in the assay on E-cadherin is less than 70 µM.
